One series deals with VEGFR-2 (Homo sapiens, UniProt P35968). The series is described as follows: VEGF stimulated VEGFR-2 autophosphorylation in whole cells. The format is cell-based. The source says: (§1) The compound of formula 1 is an anti-angiogenic small molecule inhibitor of the tyrosine kinase activity of the vascular endothelial growth factor receptor 2 (VEGFR-2). […] Angiogenesis is necessary for the growth and metastasis of all solid tumors, in that newly formed blood vessels provide nutrients for growing tumors. VEGF is highly overexpressed in a number of tumors. The therapeutic objective of the compound of formula 1 is to inhibit angiogenesis and thereby prevent tumor growth by inhibition of VEGFR-2 tyrosine kinase (TK) activity.
Chain of VEGFR-2 (P35968 20-1356): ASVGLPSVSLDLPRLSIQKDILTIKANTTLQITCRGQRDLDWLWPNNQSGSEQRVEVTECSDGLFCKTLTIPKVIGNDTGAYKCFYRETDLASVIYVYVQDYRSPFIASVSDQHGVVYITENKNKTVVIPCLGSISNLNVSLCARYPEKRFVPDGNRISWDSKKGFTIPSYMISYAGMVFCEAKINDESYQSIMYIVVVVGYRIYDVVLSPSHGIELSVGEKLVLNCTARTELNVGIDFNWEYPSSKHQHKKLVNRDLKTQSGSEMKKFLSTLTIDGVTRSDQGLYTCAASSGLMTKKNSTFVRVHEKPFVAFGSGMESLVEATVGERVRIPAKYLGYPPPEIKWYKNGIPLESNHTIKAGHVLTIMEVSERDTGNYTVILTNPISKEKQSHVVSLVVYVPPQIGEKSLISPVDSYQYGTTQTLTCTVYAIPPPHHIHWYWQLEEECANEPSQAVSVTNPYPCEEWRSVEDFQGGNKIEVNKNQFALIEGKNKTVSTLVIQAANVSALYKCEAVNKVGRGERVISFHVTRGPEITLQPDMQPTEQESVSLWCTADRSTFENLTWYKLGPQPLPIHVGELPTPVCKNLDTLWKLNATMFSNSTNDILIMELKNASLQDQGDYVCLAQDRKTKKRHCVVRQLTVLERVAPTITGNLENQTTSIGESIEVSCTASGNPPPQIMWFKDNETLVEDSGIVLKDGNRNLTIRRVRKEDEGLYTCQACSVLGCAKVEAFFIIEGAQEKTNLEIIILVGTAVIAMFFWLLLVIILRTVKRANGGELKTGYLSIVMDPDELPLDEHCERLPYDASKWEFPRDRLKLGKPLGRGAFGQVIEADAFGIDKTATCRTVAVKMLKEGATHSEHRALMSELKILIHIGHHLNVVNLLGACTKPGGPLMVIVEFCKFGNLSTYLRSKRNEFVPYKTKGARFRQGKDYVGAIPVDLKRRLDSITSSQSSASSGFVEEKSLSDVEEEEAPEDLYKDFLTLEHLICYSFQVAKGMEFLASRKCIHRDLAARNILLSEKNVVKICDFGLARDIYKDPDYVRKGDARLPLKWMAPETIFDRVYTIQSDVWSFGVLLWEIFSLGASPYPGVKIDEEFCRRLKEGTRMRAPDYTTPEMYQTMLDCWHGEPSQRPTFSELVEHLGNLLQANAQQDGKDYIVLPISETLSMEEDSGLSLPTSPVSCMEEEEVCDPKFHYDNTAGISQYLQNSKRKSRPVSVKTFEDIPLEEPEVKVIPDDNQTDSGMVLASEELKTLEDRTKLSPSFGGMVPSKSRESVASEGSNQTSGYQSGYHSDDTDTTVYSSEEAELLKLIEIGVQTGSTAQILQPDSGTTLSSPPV

For another series, the system named is endothelial cell. In words: endothelial cell proliferation. In kind it is cell-based.
Excerpt: as §1

Series [1] in a line: hygroscopicity of the salt. The format is physicochemical. The settings on record: at 90% relative humidity at ambient temperature. The protocol: The mixture was then shaken gently with heating at 50° C. for 3 hours and at ambient temperature for 3 days. The solid was filtered, dried under high vacuum to afford a white solid (468 mg, 0.823 mmol, 82%). Melting point 230° C. (DSC). Hygroscopicity: 1% (by weight)) at 90% relative humidity at ambient temperature (RH). Characteristic X-ray powder diffraction peaks (2-theta, [% relative intensity]): 8.623 [90.7], 12.121 [38.9], 17.298 [95.2], 23.397 [44.7], 23.944 [51.7], 24.119 [62.7], 24.873 [55.7], 25.948 [100], and 28.821 [39.6].

The nature of series [2]: phase 1/2 study with paclitaxel and carboplatin: safety. In kind it is in vivo, human patients. How it is done: (§2) Anti-tumor activity was also assessed.
For another series, the system named is stage IIIb or IV NSCLC. The series is described as follows: phase 1/2 study with paclitaxel and carboplatin: anti-tumor activity. The note with it: 24 patients evaluable for response, with P/C. In kind it is in vivo, human patients. The protocol:
as §2

Details of series [3]: species or system human patients. The note with it: in vivo. How it is done: (§3) In a phase 1 study, fifty five (55) patients were treated with the compound of formula 2 as a single agent over a dose range from 35 mg PO (oral dose) for 14 days to 400 mg PO per day continuously. Overall, 25 male and 30 female patients were treated. Patient malignancies include: NSCL (11 patients), renal and urothelial (7 patients), breast (6 patients), colorectal (7 patients), esophageal (3 patients), pancreatic (2 patients), prostate (3 patients), melanoma (2 patients), head and neck (3 patients), soft tissue sarcoma (3 patients), other (8 patients). Forty-two patients had prior chemotherapy. Three patients starting at 300 mg/d had dose reductions to 225 mg/d; 2 reductions were for grade 3 hypertension (HTN), graded by the Common Toxicity Criteria (CTC version 2), occurring between days 15 and 18; 1 additional reduction was as per the patient's request after an episode of hemoptysis in this patient with renal cell carcinoma and lung metastasis. CTC Grade 3 hypertension was initially considered dose limiting at doses of the compound of formula 2 of 300 mg/d, occurring in 2 of 6 patients. Both patients returned to CTC grade 1 or better within 7 days of holding study drug.

Series [4] relates to patient malignancies (NSCL, renal and urothelial, breast, colorectal, other). The series is described as follows: phase 1 single agent study: tumor response. The format is in vivo, human patients. The note with it: of 29 patients with tumor response data. The protocol:
as §3
Of the 29 patients for whom tumor response data is available, 9 patients have stable disease beyond 2 cycles (more than 8 weeks) and 2 patients had stable disease beyond 4 cycles (more than 16 weeks).

Series [5] can be described thus: phase 1 single agent study: pharmacokinetic analysis. The format is in vivo, human patients. The note with it: for AUC: 250 mg. How it is done:
A preliminary pharmacokinetic analysis has been performed on the compound of formula 2 concentration data from the patients in the Phase 1 study. In the higher dose cohorts in that study, blood specimens for pharmacokinetics were collected on Day 1 and 15 of Cycle 1 at the following times: just prior to dosing and at 0.5, 1, 2, 4, 6, 8, 12, 16, and 24 hours post-dose. Blood specimens for pharmacokinetics were also collected prior to and 2 hours after dosing on Days 3, 5, and 8 of Cycle 1. […] The 1% value of the cumulative distribution of the data is 2000 ng·hr/mL and the 99% value is 25000 ng·hr/mL. […] For instance, the 99% value for a dose of 300 mg is predicted to be 25000 ng·hr/mL times 1.2 (300 divided by 250) which equals 30000 ng·hr/mL. The 1% value for a dose of 125 mg is predicted to be 2000 ng·hr/mL times 0.5 (125 divided by 250) which equals 1000 ng·hr/mL. Similar calculations provide predictions of the 1% (lower) and 99% (upper) values of the cumulative distribution of 24-hour AUC values for doses of 150 mg, 180 mg, 260 mg, and 280 mg.

A further series can be described thus: clinical. The settings on record: human, plasma, oral.
The nature of series [6]: phase 1/2 study with paclitaxel and carboplatin: PK. The note with it: doses ≧150 mg QD.
Excerpt: (§4) With daily (i.e., QD) dosing, the 24-hour AUC value (i.e., the dosing interval AUC value) is a standard measure of systemic exposure to the compound.
(§5) A phase 1/2 study examined the safety and PK of escalating oral QD doses of the hydrochloride salt of the compound of formula 1, viz., the hydrochloride salt of 3-(4-Bromo-2,6-difluoro-benzyloxy)-5-[3-(4-pyrrolidin-1-yl-butyl)-ureido]-isothiazole-4-carboxylic acid amide (i.e., compound of formula 2 shown above), given in combination with paclitaxel (P) (225 mg m^2) and carboplatin (C) (AUC=6) administered in 21 day cycles to chemotherapy naïve patients with PS 0-1 stage IIIb or IV NSCLC with or without stable brain mets and PS 0-1.

Like-named read-outs stand apart in the source and are kept apart here.

Excerpt for clinical: as §4, §5

For the molecule `NC(=O)c1c(OCc2c(F)cc(Br)cc2F)nsc1NC(=O)NCCCCN1CCCC1` [compound of formula 1], on VEGFR-2, the “inhibition of VEGF stimulated VEGFR-2 autophosphorylation” value is reported as “inhibits VEGF stimulated VEGFR-2 autophosphorylation in whole cells”. In addition, the “inhibition of endothelial cell proliferation” value in the series with endothelial cell is “inhibits endothelial cell proliferation”.

Regarding `Cl.NC(=O)c1c(OCc2c(F)cc(Br)cc2F)nsc1NC(=O)NCCCCN1CCCC1` [compound of formula 2], in [1], the Hygroscopicity is recorded as 1 % (by weight). Further, the “most common treatment emergent adverse events” value in [2] (in vivo) is “diarrhea, fatigue, nausea, neuropathy, emesis, alopecia, dyspnea and arthralgia/myalgia”. Besides, the “safety of combination with standard doses of P/C” value in series [2] (in vivo, po) is on record as “can be safely combined with standard doses of P/C”. In series [2] (oral QD with paclitaxel 225 mg/m2 and carboplatin AUC=6, 21 day cycles, NSCLC patients), this molecule gave a maximum tolerable dose of 200 mg/day. In addition, in the series with stage IIIb or IV NSCLC, the objective response rate was 20% and the progressive disease rate was 33%. In series [3] (both, human), the “CTC Grade 3 hypertension (initially considered dose limiting)” value is reported as 2 of 6; the “dermatologic events reported by more than one patient” value is “grade 2 venostasis rash, which occurred in cycle 2, and grade 1 pallor and shingles”; the “events in patient dose reduced from 400 mg to 350 mg” value was “grade 3 fatigue”; the “patients with dose limiting toxicities” value is on record as “None of the 4”. Also, in series [3] (both, human), the “patients with dose limiting toxicity” value was 1 of 10, the “recommended Phase 2 single agent dose” value worked out at 250 mg and the “reports of grade 3 diarrhea” value is on record as 3 reports. The same molecule came in with a maximum administered dose in [3] (both, human, po) of 400 mg. Also, in [3], the “events in patient further dose reduced to 300 mg” value is “severe renal hemorrhage, alveolar hemorrhage and gastrointestinal hemorrhage”; the “other gastrointestinal adverse events occurring in 2 or more patients” value was “nausea, taste disturbance, anorexia and mouth dryness”. In series [4], the “patients with stable disease beyond 2 cycles (more than 8 weeks)” value was 9 patients and the “patients with stable disease beyond 4 cycles (more than 16 weeks)” value is reported as 2 patients. The “drug concentrations versus predicted efficacious concentrations” value in series [5] (250 mg daily dose) is reported as “consistently above the lowest predicted human efficacious concentrations”. The “24-hour AUC, predicted 1% value of the cumulative distribution” value in series [5] (dose of 125 mg, assuming dose proportionality) was 1000 ng·h/mL. The “24-hour AUC, predicted 99% value of the cumulative distribution” value in [5] (dose of 300 mg, assuming dose proportionality) was 30000 ng·h/mL. Also, the AUC in series [5] (human, plasma, oral, 250 mg QD, 19 patients, log-normal distribution, read-out: 24-hour AUC, geometric mean) worked out at 7260 ng·h/mL. In series [5] (human, plasma, oral, 250 mg QD, 19 patients, read-out: 24-hour AUC values, range), the AUC lay within 2880 to 18700 ng·h/mL. In addition, in series [5] (human, plasma, oral, 250 mg QD, 19 patients, read-out: 24-hour AUC, 1% value of the cumulative distribution), the AUC was found to be 2000 ng·h/mL. Also, the AUC in series [5] (human, plasma, oral, 250 mg QD, 19 patients, read-out: 24-hour AUC, 99% value of the cumulative distribution) turned out to be 25000 ng·h/mL. The Cmax in series [5] (human, plasma, oral, 250 mg QD, 19 patients, standard deviation 240 ng/mL, read-out: mean Cmax (maximum observed plasma concentration)) came out at 457 ng/mL. Moreover, the half-life in the series “clinical” is around 32 h. Further, the plasma concentrations achieved result in series [6] is “within the range associated with anti-angiogenesis in preclinical models”.

Values taken from patent publication US20050234115A1, “Dosage forms and methods of treatment using VEGFR inhibitors” (Pfizer Inc., priority 2004, published 2005).
